Data taken from patent publication US20260262644A1, “Antifungal compositions comprising natamycin” (Patent Nata B.V., priority 2023, published 2026).

How the values were obtained:
Pythium ultimum [1] = assay: Mycelium growth on PDA petri dishes containing natamycin and/or solvent; synergy by Colby equation; type: cell-based
From the text: The Colby equation (Colby, 1967. Weeds 15: 20-22) calculates the expected antifungal activity (E in %) of a combination comprising more than one active ingredients:
wherein X and Y are the observed antifungal activities (in %) of the individual active ingredients x and y, respectively. If the observed antifungal activity (O in %) of the combination exceeds the expected antifungal activity (E in %) of the combination and the synergy factor O/E is thus >1.0, the combined application of the active ingredients and solvent leads to a synergistic antifungal effect.
Agar medium was prepared by mixing in a 100 ml Duran bottle 3.9 g of potato dextrose agar (PDA; Carl-Roth GmbH+Co. KG, Karlsruhe, Germany) with 100 ml deionized water and autoclaving the Duran bottle at 120° C. for 15 minutes. After autoclaving, the solution was cooled by putting it in a 50° C. oven for about two hours. Afterward the semi-liquid PDA solution was carefully mixed with natamycin and/or solvent dosages as specified in Table 2 (left column). The medium in the Duran bottle was divided over 5 petri dishes (90×15 mm), 20 ml per petri dish by using 25 ml serological pipets (ROTILABO®; Carl-Roth). Each natamycin and/or solvent treatment was performed in five fold.
Hereafter, a circular agar mycelium plug (circular segment with a height on 5 mm of agar, fully grown with fresh Pythium ultimum mycelium, which was cut out of a petri dish with the broad side of a yellow pipette tip (Greiner Bio-One, 200 μl tips) with a diameter of 5 mm, was placed in the center of the petri dish. Hereafter the petri dishes were placed in the incubator at 22° C. Measurement of the fungal growth was done using caliper.
The solvent levels and the period after which the assessments were made are presented as specified for the different solvents are presented in Table 2 below. Synergistic calculation was done using the Colby equation. Experiment was performed in 5-fold.

Botrytis cinerea = assay: as above; type: cell-based; settings: 1 day after plug
[2] = Solubility of natamycin in solvents (HPLC); type: physicochemical
Description: The solubility of natamycin was measured in water and in the water-miscible solvent DMSO. For this, 240.6 mg and 94.3 mg of natamycin at a purity of 95% (DSM) were diluted in 50 ml of water and DMSO, respectively. The mixtures were sonicated for 30 minutes and analysed by HPLC. The HPLC system was an Agilent 1100 system. The column used was a ACE C18 RP column, 250×4.6 mm with pore size 5 μm. The mobile phase consisted of 1 g ammonium chloride and 3 g ammonium acetate dissolved in 760 mL water, and mixed with 240 mL acetonitrile and 5 mL tetrahydrofuran (THF). The speed of the flow was 3.0 ml/min and the column temperature was 25° C. The injection volume was 20 μL. Natamycin was detected with a spectrophotometer at a wavelength of 303 nm. All samples were centrifugated and filtered through 0.45 μm HPLC filters before analysis. The amount of dissolved natamycin measured in water and DMSO were 32 mg/kg and 2571 mg/kg, respectively (see Table 12).
For the water-miscible solvent Purasolv® EL, and the water-immiscible solvents BL and EHL, natamycin was added until it no longer dissolved. The mixtures were then filtered and analysed by HPLC. The amount of dissolved natamycin were 832, 211, and 271 mg/kg for EL, BL, and EHL, respectively (Table 12).

Pythium ultimum [3] = assay: Emergence of coated spinach seeds in artificially infected soil; type: in vivo; settings: natamycin 0.25, BL 0, thymol 0 mg/g seeds, 6 days after sowing
Description: Spinach seeds were placed in soil that was artificially infected (see below for method).
Soil infection was obtained via incubation of soil with infected, killed rye seeds. […] The dead rye seeds were infected with Pythium ultimum PDA plugs (circular segments of PDA, covered with freshly fully grown Pythium ultimum mycelium, which were cut out of a petri dish with the broad side of a yellow pipette tip (Greiner Bio-One, 200 μl tips) with a diameter of 5 mm). Three P. ultimum agar plugs were placed in the 500 ml jar containing the 50 g autoclaved (dead) rye seeds, which was further incubated at 22° C. for one week (16 h day light, 8 hours dark). To prepare the infected soil, potting soil (Tuinaarde, ophoog grond, purchased from Welkoop) were placed in round transparent plastic containers (9 cm in diameter, 4.5 cm high, volume 250 ml). Ten infected rye seeds, that acted as a carrier for P. ultimum, were placed in each round plastic container. To treat the spinach seeds, 77.8 μl of treatment mix (see below) was added to 1 g of seeds in a plastic container. The seeds were shaken and let to dry. Once dried, 20 treated spinach seeds were added to the inoculated soil. The rye seeds and spinach seeds were mixed into the soil, so that both seed types were homogenously distributed within the soil as well as covered by the soil. […] Emergence of the seedlings was assessed. […]

Pythium ultimum [4] = assay: Emergence of coated radish seeds in artificially infected soil; type: in vivo; settings: natamycin 0.05, thymol 0 mg/g seeds, 2 days after sowing
Description: Soil infection was obtained via incubation of soil with infected, killed rye seeds. For this, 50 g of rye seeds and 50 ml water were put into a 500 ml glass jar, which was autoclaved twice (121° C., 15 min, 15 psi). The dead rye seeds were infected with Pythium ultimum PDA plugs (circular segments of PDA, covered with freshly fully grown Pythium ultimum mycelium, which were cut out of a petri dish with the broad side of a yellow pipette tip (Greiner Bio-One, 200 μl tips) with a diameter of 5 mm). Three P. ultimum agar plugs were placed in the 500 ml jar containing the 50 g autoclaved (dead) rye seeds, which was further incubated at 22° C. for one week (16 h day light, 8 hours dark). To prepare the infected soil, potting soil (Tuinaarde, ophoog grond, purchased from Welkoop) were placed in round transparent plastic containers (9 cm in diameter, 4.5 cm high, volume 250 ml). Ten infected rye seeds, that acted as a carrier for P. ultimum, were placed in each round plastic container. […] The seeds were shaken and let to dry. […] The containers were closed with transparent lids and placed into a growth cabinet with the following growth conditions: 16 h day light, 22° C. constant temperature, 70% humidity. Emergence of the seedlings was assessed. For each treatment 3 pots were used, resulting in 3 replicates. […]

[5] = natamycin-solvent 0-12.5 ppm, 1 day after plug
[6] = natamycin-solvent 0-25 ppm, 1 day after plug
[7] = natamycin-solvent 0-250 ppm, 1 day after plug
[8] = natamycin-solvent 0-125 ppm, 2 days after plug, Tables 4-5
[9] = natamycin-solvent 0-250 ppm, 2 days after plug, Tables 4-5
[10] = natamycin-solvent 0-500 ppm, 2 days after plug, Tables 4-5
[11] = natamycin-solvent 0-12.5 ppm, 2 days after plug
[12] = natamycin-solvent 0-25 ppm, 2 days after plug
[13] = natamycin-solvent 0-250 ppm, 2 days after plug

CC(O)C(=O)N(C)C (stereo not shown) [Agnique ® AMD 3L, dimethyllactamide]
Avg infected area (Pythium ultimum [1]; [5]): 1220.5 mm^2
Observed % (Pythium ultimum [1]; [5]): 10.31%
Avg infected area (Pythium ultimum [1]; [6]): 1116.3 mm^2
Observed % (Pythium ultimum [1]; [6]): 17.97%
Avg infected area (Pythium ultimum [1]; [7]): 1278.7 mm^2
Observed % (Pythium ultimum [1]; [7]): 6.04%

CC(O)C(=O)N(C)C (stereo not shown) [DMAC, dimethyllactamide]
Avg infected area (Pythium ultimum [1]; [5]): 1251.6 mm^2
Observed % (Pythium ultimum [1]; [5]): 6.73%
Avg infected area (Pythium ultimum [1]; [7]): 1316.1 mm^2
Observed % (Pythium ultimum [1]; [7]): 1.93%

C[S+](C)[O-] [DMSO, Dimethyl Sulfoxide]
Avg infected area (Pythium ultimum [1]; [8]): 5247.969 mm2
Avg infected area (Pythium ultimum [1]; [9]): 5238.583 mm2
Avg infected area (Pythium ultimum [1]; [10]): 5129.162 mm2
Avg infected area (Pythium ultimum [1]; natamycin-solvent 0-1000 ppm, 2 days after plug, Tables 4-5): 4475.89 mm2

CCCCC(CC)COC(=O)[C@H](C)O (stereo partly drawn) [EHL, 2-ethylhexyl L-lactate]
Avg infected area (Pythium ultimum [1]; natamycin-solvent 0-125 ppm, 1 day after plug, Tables 6-7): 290.1899 mm2
Avg infected area (Pythium ultimum [1]; natamycin-solvent 0-250 ppm, 1 day after plug, Tables 6-7): 34.78 mm2
Avg infected area (Botrytis cinerea; natamycin-solvent 0-0.5 ppm): 1740.142 mm2
Observed % (Botrytis cinerea; natamycin-solvent 0-0.5 ppm): 11.74%

CCOC(=O)[C@H](C)O [EL, ethyl L-lactate]
Avg infected area (Pythium ultimum [1]; natamycin-solvent 0-12.5 ppm, 1 day after plug, Tables 6-7): 625.9774 mm2
Avg infected area (Pythium ultimum [1]; natamycin-solvent 0-25 ppm, 1 day after plug, Tables 6-7): 574.2358 mm2
Avg infected area (Pythium ultimum [1]; natamycin-solvent 0-50 ppm, 1 day after plug, Tables 6-7): 619.378 mm2
Avg infected area (Botrytis cinerea; natamycin-solvent 0-0.5 ppm): 1390.376 mm2
Observed % (Botrytis cinerea; natamycin-solvent 0-0.5 ppm): 29.48%

CCO [EtOH, Ethanol]
Avg infected area (Pythium ultimum [1]; [8]): 5488.804 mm2
Avg infected area (Pythium ultimum [1]; [9]): 5286.064 mm2
Avg infected area (Pythium ultimum [1]; [10]): 4366.453 mm2
Avg infected area (Botrytis cinerea; natamycin-solvent 0-0.5 ppm): 1602.867 mm2
Observed % (Botrytis cinerea; natamycin-solvent 0-0.5 ppm): 18.70%

C=CCCCCCCCC(=O)N(C)C [Hallcomid ® 1025]
Avg infected area (Pythium ultimum [1]; [11]): 3666.2 mm^2
Observed % (Pythium ultimum [1]; [11]): 30.89%
Avg infected area (Pythium ultimum [1]; [12]): 2118.6 mm^2
Observed % (Pythium ultimum [1]; [12]): 60.06%
Avg infected area (Pythium ultimum [1]; [13]): 0 mm^2
Observed % (Pythium ultimum [1]; [13]): 100.00%

C[C@@H]1C/C=C/C=C/C=C/C=C/[C@H](O[C@@H]2O[C@H](C)[C@@H](O)[C@H](N)[C@@H]2O)C[C@@H]2O[C@](O)(C[C@@H](O)C[C@H]3O[C@@H]3/C=C/C(=O)O1)C[C@H](O)[C@H]2C(=O)O [Natamycin]
Natamycin concentration (amount of dissolved natamycin) ([2]; in 2-ethylhexyl L-lactate (Purasolv EHL)): 271 mg/kg
Natamycin concentration (amount of dissolved natamycin) ([2]; in DMSO): 2571 mg/kg
Natamycin concentration (amount of dissolved natamycin) ([2]; in ethyl L-lactate (Purasolv EL)): 832 mg/kg
Natamycin concentration (amount of dissolved natamycin) ([2]; in n-butyl L-lactate (Purasolv BL)): 211 mg/kg
Natamycin concentration (amount of dissolved natamycin) ([2]; in water): 32 mg/kg
Avg infected area (Pythium ultimum [1]; natamycin-solvent 25-0 ppm, 2 days after plug, Tables 4-5): 4397.811 mm2
Avg infected area (Pythium ultimum [1]; natamycin-solvent 50-0 ppm, 1 day after plug, Tables 6-7): 563.7967 mm2
Avg infected area (Pythium ultimum [1]; natamycin-solvent 50-0 ppm, 2 days after plug, Tables 4-5): 4891.484 mm2
Avg infected area (Pythium ultimum [1]; natamycin-solvent 100-0 ppm, 2 days after plug, Tables 4-5): 4435.301 mm2
Avg infected area (Pythium ultimum [1]; natamycin-solvent 200-0 ppm, 2 days after plug, Tables 4-5): 5059.918 mm2
Avg germination (Pythium ultimum [3]): 18.3
Observed % (Pythium ultimum [3]): 37.50%
Avg infected area (Botrytis cinerea; natamycin-solvent 0.5-0 ppm): 1183.171 mm2
Observed % (Botrytis cinerea; natamycin-solvent 0.5-0 ppm): 39.99%
Avg germination (Pythium ultimum [4]): 41.7
Observed % (Pythium ultimum [4]): 13.64%

Xylene
Avg infected area (Pythium ultimum [1]; [12]): 5371.2 mm^2
Observed % (Pythium ultimum [1]; [12]): 1.35%
